According to patent US7105483B2, “Phosphinic pseudopeptide derivatives for the selective inhibition of the C-terminal active site of angiotensin I converting enzyme (ACE)” (Commissariat a l'Energie Atomique, priority 2002, dated 2006):
Where two headings read alike, the source gives them in different places.

Experiments:
[1] = molecular target: C-terminal site of human recombinant ACE (Homo sapiens, UniProt P12821); test: Inhibition constants with respect to the C-terminal site of ACE (quenched-fluorescence substrate); type: biochemical; details: first HPLC fraction; substrate Mca-Ala-Ser-Asp-Lys-DpaOH; 25° C., pH 6.8, 50 mM HEPES, 10 mM CaCl2, 200 mM NaCl
Sequence of C-terminal site of human recombinant ACE (P12821 30-1306): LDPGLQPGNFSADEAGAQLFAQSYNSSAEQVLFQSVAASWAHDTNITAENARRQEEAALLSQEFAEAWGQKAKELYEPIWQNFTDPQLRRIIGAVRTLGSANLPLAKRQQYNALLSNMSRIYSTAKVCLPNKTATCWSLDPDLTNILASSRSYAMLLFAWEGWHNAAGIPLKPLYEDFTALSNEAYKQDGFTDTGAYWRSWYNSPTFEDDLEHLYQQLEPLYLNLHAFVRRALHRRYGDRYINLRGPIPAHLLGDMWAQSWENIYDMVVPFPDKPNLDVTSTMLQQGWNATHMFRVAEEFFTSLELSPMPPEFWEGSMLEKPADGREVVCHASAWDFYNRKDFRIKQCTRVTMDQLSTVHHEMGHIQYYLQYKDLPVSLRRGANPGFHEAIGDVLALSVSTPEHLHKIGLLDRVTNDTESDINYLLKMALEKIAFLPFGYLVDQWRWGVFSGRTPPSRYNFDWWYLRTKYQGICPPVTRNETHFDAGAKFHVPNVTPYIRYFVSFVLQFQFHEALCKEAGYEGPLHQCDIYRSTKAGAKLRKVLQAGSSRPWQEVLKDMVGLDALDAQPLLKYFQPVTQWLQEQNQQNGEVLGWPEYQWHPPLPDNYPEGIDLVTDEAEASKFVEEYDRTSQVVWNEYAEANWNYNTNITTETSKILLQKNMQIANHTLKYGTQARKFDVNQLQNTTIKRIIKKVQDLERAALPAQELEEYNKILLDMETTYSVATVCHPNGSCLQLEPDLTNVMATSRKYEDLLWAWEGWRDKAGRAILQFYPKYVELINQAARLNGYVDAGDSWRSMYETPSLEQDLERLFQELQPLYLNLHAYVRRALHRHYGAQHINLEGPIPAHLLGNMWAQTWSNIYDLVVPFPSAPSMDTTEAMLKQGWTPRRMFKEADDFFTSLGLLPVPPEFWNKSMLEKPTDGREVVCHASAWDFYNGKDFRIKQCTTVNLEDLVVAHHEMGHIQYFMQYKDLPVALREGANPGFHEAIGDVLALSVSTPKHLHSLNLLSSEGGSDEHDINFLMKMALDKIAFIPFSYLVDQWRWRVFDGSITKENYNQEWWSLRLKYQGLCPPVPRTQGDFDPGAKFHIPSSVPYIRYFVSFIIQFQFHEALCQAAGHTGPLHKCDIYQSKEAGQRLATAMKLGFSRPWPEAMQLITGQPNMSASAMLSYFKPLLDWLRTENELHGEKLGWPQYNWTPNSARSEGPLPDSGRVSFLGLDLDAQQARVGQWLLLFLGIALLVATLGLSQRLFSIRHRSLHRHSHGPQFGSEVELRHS
From the text: (§1) Human recombinant ACE is used for this determination. Curves of inhibition of ACE with pseudopeptides A to G are obtained using the quenched-fluorescence substrate Mca-Ala: Mca-Ala-Ser-Asp-Lys-DpaOH (Mca: […]; DpaOH: N-3-(2,4-dinitrophenyl)-L-2,3-diaminopropionyl).
(§2) The first fraction collected during the purification of each of the pseudopeptides A to G by HPLC (peak 1 of FIG. 2 for pseudopeptide G) is used for these tests.
(§3) From the inhibition profiles obtained with this substrate, for each pseudopeptide A to G, it is possible to determine the constants Ki N and Ki C by following the procedure described by Dive et al..
(§4) The inhibition experiments were performed at 25° C., pH 6.8, 50 mM HEPES, 10 mM, CaCl2, 200 mM NaCl.

[2] = molecular target: N-terminal site of human recombinant ACE (Homo sapiens, UniProt P12821); test: Inhibition constants with respect to the N-terminal site of ACE (quenched-fluorescence substrate); type: biochemical; details: first HPLC fraction; substrate Mca-Ala-Ser-Asp-Lys-DpaOH; 25° C., pH 6.8, 50 mM HEPES, 10 mM CaCl2, 200 mM NaCl
Sequence of N-terminal site of human recombinant ACE (P12821 30-1306): as above
From the text: as §1, §2, §3, §4

ACE = ACE (Homo sapiens, UniProt P12821); test: Inhibitory power of HPLC-isolated diastereoisomers/fractions with respect to ACE; type: biochemical; details: HPLC-isolated diastereoisomer / first fraction (peak 1)
Sequence of ACE (P12821 30-1306): as above
From the text: In this figure, 4 peaks corresponding to the 4 diastereoisomers present in pseudopeptide G are observed (these 4 peaks have an identical mass spectrum, mass observed MH^+=618.23, expected mass=617.23).

[3] = rats; cited from earlier work
[4] = mice; cited from earlier work
[5] = tested on: cleavage of the peptide Ac-SDKP; test: In vivo cleavage of the peptide Ac-SDKP in mice; details: 10 mg/kg of body weight, versus saline control
Description: (§5) This study is performed on batches of male C57BL6/J mice (Iffa Credo) weighing 20 to 23 g each, each batch comprising 6 mice.
(§6) To do this, the mice are anaesthetized by means of an intraperitoneal administration of sodium pentobarbital (Sanofi) at a dose of 80 mg/kg of body weight. The right carotid artery is isolated and a catheter (PE10, 0.28×0.61, A-M Systems, Inc.) is inserted into this artery to allow the withdrawal of blood samples, while another catheter (FEP, 0.12×0.67, Carnegie Medecin) is inserted into the ipsilateral jugular vein to allow the administration of the substances. Throughout the experiment, the body temperature of the mice is maintained at 38° C. […]
(§7) Samples of arterial blood, of about 50 μl, are withdrawn 30, 60 and 90 seconds after injection of the angiotensin I mixture or of the bradykinin mixture to the mice that received these mixtures, and 1, 5, 10 and 15 minutes after the start of injection of the Ac-SDKP mixture to the mice that received the latter mixture. […] The exact amounts of blood withdrawn are determined by reweighing the tubes. […]

[6] = tested on: degradation of the peptide N-acetyl Ser-Asp-Lys-Pro (Ac-SDKP); details: mice, reference [9]; cited from earlier work
cleavage of bradykinin = test: In vivo cleavage (protection) of bradykinin in mice; details: 10 mg/kg of body weight; protection with perindopril arbitrarily set at 100%; C57BL6/J mice
Description: as §5, §6, §7

[7] = tested on: conversion of angiotensin I into angiotensin II; test: In vivo cleavage of angiotensin I to angiotensin II in mice; details: perfusion over 30 minutes, C57BL6/J mice
Description: as §5, §6, §7

Structure (SMILES)	Ki [1]	Ki [2]	inhibitory power with respect to ACE (ACE)	other results
O=C(NC(CCc1ccccc1)P(=O)(O)C1CCCC1C(=O)NC(CCCc1c[nH]c2ccccc12)C(=O)O)OCc1ccccc1 (centres unmarked) [Pseudopeptide F]	60 nM	8000 nM	capable of inhibiting ACE	
CC(=O)N[C@@H](CC(=O)O)C(=O)N[C@@H](Cc1ccccc1)P(=O)(O)C[C@@H](C)C(=O)N[C@@H](C)C(N)=O [RXP407]				metabolism in vivo [3]: not metabolized; metabolism in vivo [4]: not metabolized; increase of the plasmatic content of Ac-SDKP relative to control mice ([5]; mice): 16 fold; inhibition of the degradation of Ac-SDKP in vivo [6]: capable of inhibiting the degradation
O=C(NC(Cc1ccccc1)P(=O)(O)C1CCCC1C(=O)NC(Cc1c[nH]c2ccccc12)C(=O)O)OCc1ccccc1 (centres unmarked) [Pseudopeptide G]	3 nM	10000 nM	shows inhibitory power	effect on the cleavage of the peptide Ac-SDKP ([5]; C57BL6/J mice): no significant effect; degree of protection of bradykinin (cleavage of bradykinin): 9.2%; reduction of the angiotensin II/angiotensin I ratio measured in the control mice ([7]; 0.9 mg/kg of body weight): 50%; reduction of the angiotensin II/angiotensin I ratio measured in the control mice ([7]; 30 mg/kg of body weight): 90%
O=C(NC(Cc1ccccc1)P(=O)(O)C1CCCC1C(=O)N1CCCC1C(=O)O)OCc1ccccc1 (centres unmarked) [Pseudopeptide C]	4 nM	60 nM	capable of inhibiting ACE	
CCC[C@H](N[C@@H](C)C(=O)N1[C@H](C(=O)O)C[C@@H]2CCCC[C@@H]21)C(=O)OCC [perindopril, reference compound]				degree of protection of bradykinin (cleavage of bradykinin): 100%

The remaining compounds from weak to strong by Ki [1], led by results:

Ki [1]	Ki [2]	inhibitory power with respect to ACE (ACE)	Structure (SMILES)	other results
60 nM	8000 nM	capable of inhibiting ACE	CC(NC(=O)OCc1ccccc1)P(=O)(O)C1CCCC1C(=O)NC(CCCc1c[nH]c2ccccc12)C(=O)O (centres unmarked) [Pseudopeptide E]	
20 nM	450 nM	capable of inhibiting ACE	CC(NC(=O)C1CCCC1P(=O)(O)C(Cc1ccccc1)NC(=O)OCc1ccccc1)C(=O)O (centres unmarked) [Pseudopeptide B]	
9 nM	200 nM	capable of inhibiting ACE	N=C(N)NCCCC(NC(=O)C1CCCC1P(=O)(O)C(Cc1ccccc1)NC(=O)OCc1ccccc1)C(=O)O (centres unmarked) [Pseudopeptide D]	
0.8 nM	0.8 nM		CC(NC(=O)CCP(=O)(O)C(Cc1ccccc1)NC(=O)OCc1ccccc1)C(=O)O (centres unmarked) [Pseudopeptide A, reference compound]	
